From patent US6841519B1, “Isoxazoline derivatives and herbicides containing the same as the active ingredient” (Kumiai Chemical Industry Co., Ltd., priority 1999, dated 2005)

What was measured:
Format in all cases: in vivo
[1] = test system: Echinochloa oryzicola Vasing. (Eo); test: Test for herbicidal effect by paddy field soil treatment (Test Example 1); conditions: application amount (active ingredient) 100 g/10 a, examined at the 21st day from the treatment, index per Table 40
Summary of the method: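 Eo seeds sown in puddled paddy soil under 3 cm water; next day a water-diluted wettable powder was dropped onto the water surface at 100 g active ingredient per 10 ares. Herbicidal effect scored on a standard scale 21 days after treatment, greenhouse-grown.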

[2] = test system: rice (Or); test: Test for crop selectivity by paddy field soil treatment (Test Example 4), phytotoxicity to rice; conditions: transplanted two-leaf stage rice, 100 g/10 a active ingredient, 21st day
Experimental: (§1) [table] <Test Example 4> Test For Crop Selectivity By Paddy Field Soil Treatment A paddy field soil was filled in a plastic pot of 100 cm^2 and subjected to puddling. Seeds of Echinochloa oryzicola Vasing. (Eo) were sowed; two-leaf stage seedlings of rice (Or) were transplanted in a depth of 2 cm; and water was filled in a depth of 3 cm. Next day, wettable powders produced in accordance with the Formulation 1 were diluted with water and dropped on the water surface. The application amount of each wettable powder was 100 g per 10 ares in terms of the active ingredient. Then, breeding was made in a greenhouse. At the 21st day from the treatment, the phytotoxicity and herbicidal effect of each wettable powder were examined in accordance with the standard shown in Table 40.

[3] = test system: Echinochloa oryzicola Vasing. (Eo); test: Test for crop selectivity by paddy field soil treatment (Test Example 4), herbicidal effect on Eo; conditions: 100 g/10 a active ingredient, 21st day
Experimental: as §1

[4] = test system: Echinochloa crus-galli (L.) Beauv. var. crusgall (Ec); test: Test for herbicidal effect by upland field soil treatment (Test Example 2), Ec
Summary of the method: (§2)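 Echinochloa crus-galli and Setaria viridis were sown in upland field soil and covered, then the soil surface was sprayed with water-diluted wettable powder at 100 g active ingredient per 10 ares (100 liters per 10 ares). Plants were grown in a greenhouse and scored on a standard scale on day 21.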

[5] = test system: Setaria viridis (L.) Beauv. (Se); test: Test for herbicidal effect by upland field soil treatment (Test Example 2), Se
Summary of the method: as §2

[6] = test system: Echinochloa crus-galli (L.) Beauv. var. crusgalli (Ec); test: Test for herbicidal effect by upland foliage treatment (Test Example 3); conditions: 100 g/10 a active ingredient, examined at 14th day
Summary of the method: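 Potted upland-soil Ec seedlings grown 2 weeks in greenhouse, then foliage-sprayed with water-diluted wettable powder at 100 L per 10 ares, giving 100 g active ingredient per 10 ares. Herbicidal effect scored on a graded standard 14 days after treatment.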

[7] = 100 g/10 a active ingredient, examined at 21st day
[8] = application amount (active ingredient) 100 g/10 a, examined at the 21st day from the treatment, index per Table 40

Row | Compound | Herbicidal effect to Eo [1] | Phytotoxicity to Or [2] | Herbicidal effect to Eo [3] | Herbicidal effect to Ec [4, 7] | Herbicidal effect to Se [5, 7] | Herbicidal effect to Ec [6] | Herbicidal effect to Ec [4, 8] | Herbicidal effect to Se [5, 8]
1 | CC1(C)CC(S(=O)(=O)Cc2c(Cl)cccc2C(=O)OCc2cccc(Cl)c2)=NO1 [Compound 1-627] | 5 (A herbicidal effect or phytotoxicity of 90% or more) | 1 (A herbicidal effect or phytotoxicity of 10% to less than 30%) | 5 (A herbicidal effect or phytotoxicity of 90% or more) | – | – | – | – | –
2 | COCCOc1ccccc1CS(=O)(=O)C1=NOC(C)(C)C1 [Compound 1-579] | 5 (A herbicidal effect or phytotoxicity of 90% or more) | 1 (A herbicidal effect or phytotoxicity of 10% to less than 30%) | 5 (A herbicidal effect or phytotoxicity of 90% or more) | – | – | – | – | –
3 | CCC1(C)CC(S(=O)(=O)Cc2ccc(OC)cc2)=NO1 (centres unmarked) [Compound 1-230] | 5 (A herbicidal effect or phytotoxicity of 90% or more) | 0 (A herbicidal effect or phytotoxicity of 0% to less than 10%) | 5 (A herbicidal effect or phytotoxicity of 90% or more) | – | – | – | – | –
4 | CCC(C)OC(=O)c1cccc(Cl)c1CS(=O)(=O)C1=NOC(C)(C)C1 (centres unmarked) [Compound 1-623] | 5 (A herbicidal effect or phytotoxicity of 90% or more) | 1 (A herbicidal effect or phytotoxicity of 10% to less than 30%) | 5 (A herbicidal effect or phytotoxicity of 90% or more) | – | – | – | – | –
5 | Fc1cccc(F)c1CSC1=NOC2CCCCC12 (centres unmarked) [Compound 1-386] | 4 (A herbicidal effect or phytotoxicity of 70% to less than 90%) | 0 (A herbicidal effect or phytotoxicity of 0% to less than 10%) | 4 (A herbicidal effect or phytotoxicity of 70% to less than 90%) | – | – | – | – | –
6 | CCCC1(C)CC([S+]([O-])Cc2c(F)cccc2F)=NO1 (centres unmarked) [Compound 1-365] | 5 (A herbicidal effect or phytotoxicity of 90% or more) | 1 (A herbicidal effect or phytotoxicity of 10% to less than 30%) | 5 (A herbicidal effect or phytotoxicity of 90% or more) | – | – | – | – | –
7 | CC1(C)CC(S(=O)(=O)Cc2ccccc2C(=O)OCc2cccc(Cl)c2)=NO1 [Compound 1-613] | 5 (A herbicidal effect or phytotoxicity of 90% or more) | 0 (A herbicidal effect or phytotoxicity of 0% to less than 10%) | 5 (A herbicidal effect or phytotoxicity of 90% or more) | – | – | – | – | –
8 | CCS(=O)(=O)C1=NOC(C)(C)C1 [Compound 2-2] | 5 (A herbicidal effect or phytotoxicity of 90% or more) | 0 (A herbicidal effect or phytotoxicity of 0% to less than 10%) | 5 (A herbicidal effect or phytotoxicity of 90% or more) | – | – | – | – | –
9 | CC1(C(=O)O)CC(SCc2c(F)cccc2F)=NO1 (centres unmarked) [Compound 1-419] | 5 (A herbicidal effect or phytotoxicity of 90% or more) | 1 (A herbicidal effect or phytotoxicity of 10% to less than 30%) | 5 (A herbicidal effect or phytotoxicity of 90% or more) | – | – | – | – | –
10 | C#CCOc1cccc(Cl)c1CS(=O)(=O)C1=NOC(C)(C)C1 [Compound 1-591] | 5 (A herbicidal effect or phytotoxicity of 90% or more) | – | – | 5 (A herbicidal effect or phytotoxicity of 90% or more) | 5 (A herbicidal effect or phytotoxicity of 90% or more) | 4 (A herbicidal effect or phytotoxicity of 70% to less than 90%) | – | –
11 | CC1(C)CC(S(=O)(=O)Cc2ccccc2OCC2CC2)=NO1 [Compound 1-608] | 5 (A herbicidal effect or phytotoxicity of 90% or more) | – | – | 5 (A herbicidal effect or phytotoxicity of 90% or more) | 5 (A herbicidal effect or phytotoxicity of 90% or more) | 5 (A herbicidal effect or phytotoxicity of 90% or more) | – | –
12 | Cc1ccc(C)c(CS(=O)(=O)C2=NOC(C)(C)C2)c1 [Compound 1-512] | 5 (A herbicidal effect or phytotoxicity of 90% or more) | – | – | 5 (A herbicidal effect or phytotoxicity of 90% or more) | 5 (A herbicidal effect or phytotoxicity of 90% or more) | 5 (A herbicidal effect or phytotoxicity of 90% or more) | – | –
13 | Cc1cccc(C)c1CS(=O)(=O)C1=NOC(C)(C)C1 [Compound 1-185] | 5 (A herbicidal effect or phytotoxicity of 90% or more) | – | – | – | – | 5 (A herbicidal effect or phytotoxicity of 90% or more) | 5 (A herbicidal effect or phytotoxicity of 90% or more) | 5 (A herbicidal effect or phytotoxicity of 90% or more)
14 | CCC1(C)CC(S(=O)(=O)Cc2ccccc2)=NO1 (centres unmarked) [Compound 1-188] | 5 (A herbicidal effect or phytotoxicity of 90% or more) | – | – | – | – | 4 (A herbicidal effect or phytotoxicity of 70% to less than 90%) | 5 (A herbicidal effect or phytotoxicity of 90% or more) | 5 (A herbicidal effect or phytotoxicity of 90% or more)
15 | CC1(C)CC(S(=O)(=O)Cc2ccc(Cl)c(Cl)c2)=NO1 [Compound 1-491] | 5 (A herbicidal effect or phytotoxicity of 90% or more) | – | – | – | – | 4 (A herbicidal effect or phytotoxicity of 70% to less than 90%) | 5 (A herbicidal effect or phytotoxicity of 90% or more) | 5 (A herbicidal effect or phytotoxicity of 90% or more)
16 | CC1(C)CC(S(=O)(=O)Cc2ccc(Cl)cc2)=NO1 [Compound 1-4] | 5 (A herbicidal effect or phytotoxicity of 90% or more) | – | – | – | – | 4 (A herbicidal effect or phytotoxicity of 70% to less than 90%) | 5 (A herbicidal effect or phytotoxicity of 90% or more) | 5 (A herbicidal effect or phytotoxicity of 90% or more)
17 | CCC1(CC)CC(S(=O)(=O)Cc2c(F)cccc2F)=NO1 [Compound 1-364] | 5 (A herbicidal effect or phytotoxicity of 90% or more) | – | – | – | – | 4 (A herbicidal effect or phytotoxicity of 70% to less than 90%) | 5 (A herbicidal effect or phytotoxicity of 90% or more) | 5 (A herbicidal effect or phytotoxicity of 90% or more)
18 | CCc1cccc(CC)c1CS(=O)(=O)C1=NOC(C)(C)C1 [Compound 1-502] | 5 (A herbicidal effect or phytotoxicity of 90% or more) | – | – | 5 (A herbicidal effect or phytotoxicity of 90% or more) | 5 (A herbicidal effect or phytotoxicity of 90% or more) | 5 (A herbicidal effect or phytotoxicity of 90% or more) | – | –
19 | C#CCOc1ccccc1CS(=O)(=O)C1=NOC(C)(C)C1 [Compound 1-559] | 5 (A herbicidal effect or phytotoxicity of 90% or more) | – | – | 5 (A herbicidal effect or phytotoxicity of 90% or more) | 5 (A herbicidal effect or phytotoxicity of 90% or more) | 5 (A herbicidal effect or phytotoxicity of 90% or more) | – | –
20 | COc1cc(CS(=O)(=O)C2=NOC(C)(C)C2)cc(OC)c1 [Compound 1-524] | 5 (A herbicidal effect or phytotoxicity of 90% or more) | – | – | 5 (A herbicidal effect or phytotoxicity of 90% or more) | 5 (A herbicidal effect or phytotoxicity of 90% or more) | 5 (A herbicidal effect or phytotoxicity of 90% or more) | – | –
21 | CC1(C)CC(S(=O)(=O)Cc2c(F)cccc2Cl)=NO1 [Compound 1-494] | 5 (A herbicidal effect or phytotoxicity of 90% or more) | – | – | – | – | 5 (A herbicidal effect or phytotoxicity of 90% or more) | 5 (A herbicidal effect or phytotoxicity of 90% or more) | 5 (A herbicidal effect or phytotoxicity of 90% or more)
22 | CC1(C)CC(S(=O)(=O)Cc2cc(F)c(F)c(F)c2)=NO1 [Compound 1-509] | 5 (A herbicidal effect or phytotoxicity of 90% or more) | – | – | 5 (A herbicidal effect or phytotoxicity of 90% or more) | 5 (A herbicidal effect or phytotoxicity of 90% or more) | 4 (A herbicidal effect or phytotoxicity of 70% to less than 90%) | – | –
23 | CCC1(CC)CC([S+]([O-])Cc2c(F)cccc2F)=NO1 (centres unmarked) [Compound 1-363] | 5 (A herbicidal effect or phytotoxicity of 90% or more) | – | – | – | – | 4 (A herbicidal effect or phytotoxicity of 70% to less than 90%) | 5 (A herbicidal effect or phytotoxicity of 90% or more) | 4 (A herbicidal effect or phytotoxicity of 70% to less than 90%)
